Test results taken from the supplement of paper PMC10307832.

Tests used:
Experiment in all cases: relative viability (nuclei count vs DMSO), 5 days (fraction); higher = more cells survive
FH535 = compound: CC1=C(C=CC(=C1)[N+](=O)[O-])NS(=O)(=O)C2=C(C=CC(=C2)Cl)Cl [FH535]
Method in brief: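 A plate was accepted only when its control CV was below 25% and the cells had doubled at least once. Viability is defined from nuclear counts as treated wells divided by vehicle wells, with the median taken across plates. That median covers lung cancer cell lines grown in 1536-well plates, dosed by pinning at five √10-spaced library-drug concentrations, and counted in MetaXpress from 4× Hoechst images after 5 days.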

FH535 + Bortezomib = compound: CC1=C(C=CC(=C1)[N+](=O)[O-])NS(=O)(=O)C2=C(C=CC(=C2)Cl)Cl [FH535] + CC(C)C[C@H](NC(=O)[C@H](Cc1ccccc1)NC(=O)c1cnccn1)B(O)O [Bortezomib] (partner 0.002 µM)
Method in brief: (§1)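 Nuclei were stained with Hoechst during a one-step fixation (final 0.05% Triton X-100, 1% formaldehyde, 1 ug/ml Hoechst) carried out 5 days after dosing, then counted on 4× images. The cells, lung cancer lines in 1536-well plates, had been dosed by pin tool the day after seeding with one drug alone or a fixed anchor-drug dose plus five library-drug doses (not always all listed) in √10 steps. Relative viability is the nuclei count in treated wells divided by that in vehicle wells, and each value is the median of duplicate plates.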

FH535 + Navitoclax = compound: CC1=C(C=CC(=C1)[N+](=O)[O-])NS(=O)(=O)C2=C(C=CC(=C2)Cl)Cl [FH535] + CC1(C)CCC(c2ccc(Cl)cc2)=C(CN2CCN(c3ccc(C(=O)NS(=O)(=O)c4ccc(N[C@H](CCN5CCOCC5)CSc5ccccc5)c(S(=O)(=O)C(F)(F)F)c4)cc3)CC2)C1 [Navitoclax] (partner 0.5 µM)
Method in brief: as §1

FH535 + Foretinib = compound: CC1=C(C=CC(=C1)[N+](=O)[O-])NS(=O)(=O)C2=C(C=CC(=C2)Cl)Cl [FH535] + COc1cc2c(Oc3ccc(NC(=O)C4(C(=O)Nc5ccc(F)cc5)CC4)cc3F)ccnc2cc1OCCCN1CCOCC1 [Foretinib] (partner 0.25 µM)
Method in brief: as §1

FH535 + Lapatinib = compound: CC1=C(C=CC(=C1)[N+](=O)[O-])NS(=O)(=O)C2=C(C=CC(=C2)Cl)Cl [FH535] + CS(=O)(=O)CCNCc1ccc(-c2ccc3ncnc(Nc4ccc(OCc5cccc(F)c5)c(Cl)c4)c3c2)o1 [Lapatinib] (partner 2 µM)
Method in brief: as §1

FH535 + Pictilisib = compound: CC1=C(C=CC(=C1)[N+](=O)[O-])NS(=O)(=O)C2=C(C=CC(=C2)Cl)Cl [FH535] + CS(=O)(=O)N1CCN(Cc2cc3nc(-c4cccc5[nH]ncc45)nc(N4CCOCC4)c3s2)CC1 [Pictilisib] (partner 1 µM)
Method in brief: as §1

FH535 + Crizotinib = compound: CC1=C(C=CC(=C1)[N+](=O)[O-])NS(=O)(=O)C2=C(C=CC(=C2)Cl)Cl [FH535] + C[C@@H](Oc1cc(-c2cnn(C3CCNCC3)c2)cnc1N)c1c(Cl)ccc(F)c1Cl [Crizotinib] (partner 1 µM)
Method in brief: as §1

FH535 + Linsitinib = compound: CC1=C(C=CC(=C1)[N+](=O)[O-])NS(=O)(=O)C2=C(C=CC(=C2)Cl)Cl [FH535] + C[C@]1(O)C[C@@H](c2nc(-c3ccc4ccc(-c5ccccc5)nc4c3)c3c(N)nccn32)C1 [Linsitinib] (partner 1 µM)
Method in brief: as §1

FH535 + Alpelisib = compound: CC1=C(C=CC(=C1)[N+](=O)[O-])NS(=O)(=O)C2=C(C=CC(=C2)Cl)Cl [FH535] + Cc1nc(NC(=O)N2CCC[C@H]2C(N)=O)sc1-c1ccnc(C(C)(C)C(F)(F)F)c1 [Alpelisib] (partner 2 µM)
Method in brief: as §1

FH535 + AZD7762 = compound: CC1=C(C=CC(=C1)[N+](=O)[O-])NS(=O)(=O)C2=C(C=CC(=C2)Cl)Cl [FH535] + NC(=O)Nc1cc(-c2cccc(F)c2)sc1C(=O)N[C@H]1CCCNC1 [AZD7762] (partner 0.2 µM)
Method in brief: as §1

FH535 + Olaparib = compound: CC1=C(C=CC(=C1)[N+](=O)[O-])NS(=O)(=O)C2=C(C=CC(=C2)Cl)Cl [FH535] + O=C(c1cc(Cc2n[nH]c(=O)c3ccccc23)ccc1F)N1CCN(C(=O)C2CC2)CC1 [Olaparib] (partner 8 µM)
Method in brief: as §1

Question: What does the source list for NCI-H1703?
Answer: relative viability (FH535; 0.04 µM): 0.958; relative viability (FH535; 0.1265 µM): 0.848; relative viability (FH535; 0.4 µM): 0.929; relative viability (FH535; 1.265 µM): 0.768; relative viability (FH535 + Bortezomib; first compound 0.04 µM): 0.413; relative viability (FH535 + Bortezomib; first compound 0.1265 µM): 0.288; relative viability (FH535 + Bortezomib; first compound 0.4 µM): 0.425; relative viability (FH535 + Bortezomib; first compound 1.265 µM): 0.317; relative viability (FH535 + Navitoclax; first compound 0.04 µM): 1.28; relative viability (FH535 + Navitoclax; first compound 0.1265 µM): 1.18; relative viability (FH535 + Navitoclax; first compound 0.4 µM): 1.21; relative viability (FH535 + Navitoclax; first compound 1.265 µM): 0.88; relative viability (FH535 + Foretinib; first compound 0.04 µM): 0.416; relative viability (FH535 + Foretinib; first compound 0.4 µM): 0.324; relative viability (FH535 + Foretinib; first compound 1.265 µM): 0.344; relative viability (FH535 + Lapatinib; first compound 0.04 µM): 1.12; relative viability (FH535 + Lapatinib; first compound 0.1265 µM): 1.12; relative viability (FH535 + Lapatinib; first compound 0.4 µM): 1.11; relative viability (FH535 + Lapatinib; first compound 1.265 µM): 0.662; relative viability (FH535 + Pictilisib; first compound 0.04 µM): 0.195; relative viability (FH535 + Pictilisib; first compound 0.1265 µM): 0.213; relative viability (FH535 + Pictilisib; first compound 0.4 µM): 0.257; relative viability (FH535 + Pictilisib; first compound 1.265 µM): 0.219; relative viability (FH535 + Crizotinib; first compound 0.04 µM): 0.922; relative viability (FH535 + Crizotinib; first compound 0.1265 µM): 0.63; relative viability (FH535 + Crizotinib; first compound 0.4 µM): 0.589; relative viability (FH535 + Crizotinib; first compound 1.265 µM): 0.408; relative viability (FH535 + Linsitinib; first compound 0.04 µM): 1.02; relative viability (FH535 + Linsitinib; first compound 0.1265 µM): 0.635; relative viability (FH535 + Linsitinib; first compound 0.4 µM): 0.561; relative viability (FH535 + Linsitinib; first compound 1.265 µM): 0.564; relative viability (FH535 + Alpelisib; first compound 0.04 µM): 0.403; relative viability (FH535 + Alpelisib; first compound 0.1265 µM): 0.362; relative viability (FH535 + Alpelisib; first compound 0.4 µM): 0.327; relative viability (FH535 + Alpelisib; first compound 1.265 µM): 0.269; relative viability (FH535 + AZD7762; first compound 0.04 µM): 0.127; relative viability (FH535 + AZD7762; first compound 0.1265 µM): 0.136; relative viability (FH535 + AZD7762; first compound 0.4 µM): 0.109; relative viability (FH535 + AZD7762; first compound 1.265 µM): 0.132; relative viability (FH535 + Olaparib; first compound 0.04 µM): 0.429; relative viability (FH535 + Olaparib; first compound 0.1265 µM): 0.461; relative viability (FH535 + Olaparib; first compound 0.4 µM): 0.486; relative viability (FH535 + Olaparib; first compound 1.265 µM): 0.392
